Experimental data from article PMC5428013, “Peptide-Au Clusters Induced Tumor Cells Apoptosis via Targeting Glutathione Peroxidase-1: The Molecular Dynamics Assisted Experimental Studies” (Scientific Reports, 2017).
“Also recorded” adds a separate entry of the source.

Key:
[1] = system: Hela cells; experiment: Cell viability assay (CCK-8), Hela; type: cell-based; details: same condition as A549
Method: Briefly, cells were prior cultured on 96-well plates (at the density of 5 × 10^3 cells/well) for 24 h to allow cells attachment. The cells were treated with different doses of these free peptides (0, 1, 4, 16, 64, 256, 1024 µM) and peptide-Au clusters (0, 50, 100, 200, 400, 800 µM in Au dose) for 48 h, respectively. The cells were washed three times with PBS and then incubated with fresh growth medium containing 10% (v/v) CCK-8 reagent for 1 h at 37 °C for cell viability assay. The absorbance was measured at 450 nm by using a microplate reader (SpectraMAX M2, Sunnyvale, California). Cell viability of untreated cells was set as 100%, and that of treated cells were expressed as a relative percentage of untreated cells. All data were shown as mean percentages ± standard deviation from three independent experiments.

[2] = system: A549 cells; experiment: Cellular location observed by CLSM; type: cell-based, human; details: 800 µM Au, 48 h, live A549 cells
Method: A549 cells were seeded on glass-bottom dishes (35 mm, MatTek Corporation) for confocal laser scanning microscopy (CLSM) observation. After 24 h, Au25P1_9 was added to culture medium and the final Au dose was 800 µM. The A549 cells were next exposed to Au25P1_9 for 48 h. Then the cells were washed three times with PBS and incubated with 10 µg/mL Hoechst 33342 at 37 °C under darkness for 10 min. Before observation, the culture medium was discarded and the cells were washed three times with PBS, supplemented with fresh culture medium. Finally, in A549 cells, the cell nucleus and Au25P1_9 were imaged under Nikon Ti-e microscope with excitation at wavelengths of 405 nm and 560 nm, respectively. To identify the accurate location of Au25P1_9 in cytoplasm of A549 cells, lysotracker green, a lysosome probe, was added in the medium after cells were incubated with Au25P1_9 for 48 h. The cells were then observed by CLSM with excitation at wavelengths of 488 nm and 560 nm, respectively.

[3] = system: GPx-1; experiment: GPx-1 enzyme activity suppression in buffer; type: biochemical, bovine; details: 10 min
Source text: The peptides (N2H-CCYGGPEEEEEVG-COOH (named P1), NH2-CCYGGPDDDEDVG-COOH (named P2) and NH2-CCYGGPEEVEEVG-COOH (named P3)) were chemically synthesized by a solid phase method (China Peptides Co. Ltd, Purity: 98%). Hydrogen tetrachloroaurate (III) (HAuCl4·4H2O) was purchased from Sinopharm Chemical Reagent Co. Ltd. Sodium hydroxide (NaOH), nitric acid (HNO3), hydrochloric acid (HCl) and hydrogen peroxide (H2O2) were purchased from Beijing Chemical Reagent Co., China. Human non-small cell lung carcinoma cells (A549 cells), Henrietta Lacks strain of cancer cells (Hela cells) and human colon adenocarcinoma cells (HCT-8 cells) were from Cancer Institute and Hospital, Chinese Academy of Medical Sciences. Fetal bovine serum (FBS) and trypsin-EDTA were obtained from Gibco, USA. Penicillin-streptomycin solution, cell culture medium DMEM and RPMI 1640 were purchased from Hyclone. Hoechst 33342, LysoTracker®Green DND-26, and CM-H2DCFDA were from Molecular Probes, USA. NucView™ 488 Caspase-3 Assay Kit was bought from Biotium, USA. 5,5′,6,6′-tetrachloro-1,1′,3,3′-tetraethylbenzimidazolocarbocyanine iodide (JC-1), cell lysis buffer for Western and IP, phenylmethanesulfonyl fluoride (PMSF) and BCA Protein Assay Kit were obtained from Beyotime Institute of Biotechnology, China. Protease inhibitor cocktail tablets were from Roche Diagnostics, GmbH, Mannheim, Germany. Cell counting kit-8 (CCK-8) reagents and Annexin V-FITC/Propidium (PI) Apoptosis Detection Kit were purchased from Dojindo Laboratories, Japan. GPx from bovine erythrocytes […] was provided by Sigma Aldrich, USA. GPx Activity Colorimetric Assay Kit was provided by Biovision, USA. Anti-GPx-1 antibody was offered by Abcam, UK. PARP antibody, caspase-3 antibody and β-actin antibody were offered by Cell Signaling Technology, USA. Amicon ultra centrifugal filter devices (Merck Millipore, MWCO: 10 kDa) were used for purification steps. Ultrapure Millipore (Mini-Q) water (18.2 MΩ) was used throughout the experiments. […]
Pure GPx (lyophilized powder, ≥300 units/mg protein) were diluted by GPx sample buffer and incubated with peptide-Au clusters (Au25P1_9, Au25P2_9 and Au25P3_9) at a series of Au dose (0, 25, 100, 400 μM) for 10 min, respectively. […] The GPx activity of untreated samples was set as 100%, and that of peptide-Au clusters treated samples were expressed as a relative percentage of untreated ones.
Figure S12. Peptide-Au clusters treated GPx-1 activity measured in buffer solution. The decrease in NADPH absorbance measured at 340 nm during the oxidation of NADPH to NADP is the indicative of GPx activity,^1, 2 which is in a dose dependent manner in tube experiments when treated with serial doses of peptide-Au clusters.

[4] = system: caspase-3; experiment: Cleaved caspase-3 level, western blotting; type: cell-based, human; details: serial Au doses (0, 100, 200, 400, 800 μM), 48 h
Method: The expression of GPx-1, caspase-3 and PARP from Au25P1_9 treated A549 cells were analyzed by western blotting. A549 cells were prior seeded on 6-well plate (at the density of 1 × 10^5 cells/well) for 24 h. Then the medium was discarded and fresh culture medium with Au25P1_9 at different doses was added to make cells exposed to final Au doses at 0, 100, 200, 400 and 800 μM, respectively. After another 48 h incubation, the cells were harvested and lysed by cell lysis buffer for Western and IP (containing 20 mM Tris-HCl, pH7.5, 150 mM NaCl, 1% Triton X-100, sodium pyrophosphate, β-glycerophosphate, EDTA, Na3VO4 and leupeptin), protease inhibitor cocktail tablet and 1 mM PMSF for 15 min on a shaker at 4 °C. The lysed cells were collected and centrifuged for 15 min at 12,000 g to get total protein of cells. The protein dose of each sample was prior quantified, and then loading buffer was added. After boiling for 5 min, the protein samples with equal amount were separated on 12% SDS polyacrylamide gel electrophoresis and then transferred onto the polyvinylidene difluoride (PVDF) membrane. Membrane was blocked by 5% nonfat dried milk prepared in tris(hydroxymethyl)amin omethane-NaCl-Tween 20 (TBST) at room temperature for 1 h, and then incubated with primary antibodies specific to β-actin, Caspase-3, PARP and GPx-1 at 4 °C overnight, respectively. […]

CCYGGPEEEEEVG [Au25P1_9, Au25 cluster coated by nine P1 peptides (…)]
change of cell viability [1]: almost negligible
cellular location [2]: red emission can be observed in the cytoplasm of live A549 cells
GPx-1 activity suppression in buffer ([3]; Au dose 0, 25, 100, 400 μM): exhibits the best suppression capacity for GPx-1; also recorded: the most effective candidate for suppression of GPx-1 activity in buffer and cells
GPx-1 activity (relative to untreated = 100%) ([3]; buffer, Au dose of 400 μM, GPx Activity Colorimetric Assay Kit, NADPH absorbance at 340 nm): 12%
cleaved caspase-3 level [4]: Au dose-dependent increase of cleaved caspases-3
